Here are results for 14 compounds from patent US20240409585A1, “MACROCYCLIC IMMUNOMODULATORS” (priority 2021, published 2024).

Numbered stars: 1 amine (or outer) side, 2 acyl side, 3 side chain; on linkers, the order of the positions; unused ones are H or OH. Bridge positions count the residues as written; N and C are the ends. Square brackets hold non-standard residues; d marks the D form. Peptide text beside a SMILES is read from it. * marks the point of attachment. ξ: configuration not given here. Tyr(3-NO2) = N[C@@H](Cc1ccc(O)c([N+](=O)[O-])c1)C(=O)O; X39 = COc1cccc(-c2ccc(C[C@H](N[*:1])C(=O)[*:2])cc2)c1; Phe(4-CONH2) = NC(=O)c1ccc(C[C@H](N)C(=O)O)cc1; Phe(4-COOH) = N[C@@H](Cc1ccc(C(=O)O)cc1)C(=O)O; Bip = N[C@@H](Cc1ccc(-c2ccccc2)cc1)C(=O)O; Phe(3-CN) = N#Cc1cccc(C[C@H](N)C(=O)O)c1; Phe(4-CN) = N#Cc1ccc(C[C@H](N)C(=O)O)cc1; Phe(3-Me) = Cc1cccc(C[C@H](N)C(=O)O)c1; Val(3-OH) = CC(C)(O)[C@H](N)C(=O)O; Cha = N[C@@H](CC1CCCCC1)C(=O)O; Ile(3ξ) = CCC(C)[C@H](N)C(=O)O; Thr(3ξ) = CC(O)[C@H](N)C(=O)O; Carboxymethyl = O=C(O)C*; NMeA = CN[C@@H](C)C(=O)O; Orn = NCCC[C@H](N)C(=O)O; Pra = C#CC[C@H](N)C(=O)O; Dab = NCC[C@H](N)C(=O)O; Dap = NC[C@H](N)C(=O)O; Piv = CC(C)(C)C(=O)*

In this experiment the target is T1, PE-labeled human PD-L1-Ig binding to Jurkat cell line over-expressing human PD-1 (Jurkat-PD-1) (Homo sapiens, UniProt Q15116).
T1 construct: expressed in transfected cells; host or cells: Jurkat
T1 sequence (Q15116 25-288): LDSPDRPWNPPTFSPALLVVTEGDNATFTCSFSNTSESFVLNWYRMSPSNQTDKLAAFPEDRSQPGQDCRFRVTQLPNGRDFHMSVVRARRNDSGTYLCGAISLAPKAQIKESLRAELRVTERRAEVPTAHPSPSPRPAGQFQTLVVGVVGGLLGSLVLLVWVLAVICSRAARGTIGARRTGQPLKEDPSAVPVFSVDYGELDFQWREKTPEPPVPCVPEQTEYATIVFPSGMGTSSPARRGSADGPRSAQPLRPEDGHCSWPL
Put plainly: Jurkat-PD-1 Cell Binding High-Content Screening Assay (CBA): Method 1. The note with it: Jurkat-hPD-1 cells, PE-labeled PD-L1-Ig 20 nM final; read-out: Jurkat HPDL1 PD1 IC50 (uM) (Method 1).
The IC50 is the point on the concentration scale where inhibition reaches its midpoint. On to `C#CC[C@H](NC(=O)CNC(=O)[C@@H]1CSCC(=O)N[C@@H]([C@@H](C)O)C(=O)N[C@@H](Cc2ccc(OCC(=O)O)cc2)C(=O)N[C@@H](CC(=O)O)C(=O)N[C@@H](Cc2cccc(C)c2)C(=O)N[C@@H](Cc2ccc(OCC(=O)O)cc2)C(=O)N[C@@H](Cc2ccc(-c3ccccc3)cc2)C(=O)N[C@@H](Cc2ccc(OCC(=O)O)cc2)C(=O)N(C)[C@@H](C)C(=O)N[C@H](CC(C)C)C(=O)N[C@@H](CCN)C(=O)N[C@@H](CC2CCCCC2)C(=O)N[C@@H](C(C)(C)O)C(=O)N[C@@H](CCC(=O)O)C(=O)N1)C(N)=O` [Compound 1939] ({CH2CO}-TY(Carboxymethyl)D[Phe(3-Me)]Y(Carboxymethyl)[Bip]Y(Carboxymethyl)[NMeA][dL][Dab][Cha][Val(3-OH)]ECG[Pra]-NH2; thioether N-14), for which the IC50 was found to be 0.11 µM.
In the case of `CC(C)C[C@@H]1NC(=O)[C@H](CCN)NC(=O)[C@@H](CC(C)C)NC(=O)[C@H](C)N(C)C(=O)[C@H](CCC(N)=O)NC(=O)[C@H](Cc2ccc(-c3ccccc3)cc2)NC(=O)[C@H](C(C)C)NC(=O)[C@H](Cc2c[nH]c3ccccc23)NC(=O)[C@H](CC(=O)O)NC(=O)[C@H](Cc2ccc(O)cc2)NC(=O)[C@H](CC(N)=O)NC(=O)CSC[C@@H](C(=O)N[C@@H](C)C(N)=O)NC(=O)[C@H]([C@@H](C)O)NC(=O)[C@H](C(C)C)NC1=O` [Compound 1301] ({CH2CO}-NYDWV[Bip]Q[NMeA][dL][Dab]LVTCA-NH2; thioether N-14) it was 0.06 µM; in that of `CC(C)C[C@@H]1NC(=O)[C@H](Cc2c[nH]c3ccccc23)NC(=O)[C@H](CC(=O)O)NC(=O)[C@H](Cc2ccc(OCC(=O)O)cc2)NC(=O)[C@H](C(C)O)NC(=O)CSC[C@@H](C(N)=O)NC(=O)[C@H](CO)NC(=O)[C@H](C(C)C)NC(=O)[C@H](CC2CCCCC2)NC(=O)[C@H](Cc2cnc[nH]2)NC(=O)[C@@H](CC(C)C)NC(=O)[C@H](C)N(C)C(=O)[C@H](C(C)C)NC(=O)[C@H](Cc2ccc(-c3ccccc3)cc2)NC1=O` (stereo partly drawn) [Compound 2253] ({CH2CO}-[Thr(3ξ)]Y(Carboxymethyl)DWL[Bip]V[NMeA][dL]H[Cha]VSC-NH2; thioether N-14), 0.04 µM.
Then `CC(C)C[C@@H]1NC(=O)[C@H](Cc2c[nH]c3ccccc23)NC(=O)[C@H](CC(=O)O)NC(=O)[C@H](Cc2ccc(O)cc2)NC(=O)[C@H](Cc2ccccc2)NC(=O)CSC[C@@H](C(=O)NCC(N)=O)NC(=O)[C@H](CO)NC(=O)[C@H](C(C)C)NC(=O)[C@H](CC(C)C)NC(=O)[C@H](CC(N)=O)NC(=O)[C@@H](CC(C)C)NC(=O)[C@H](C)N(C)C(=O)[C@H](CCC(=O)O)NC(=O)[C@H](Cc2ccc(-c3ccccc3)cc2)NC1=O` [Compound 1510] ({CH2CO}-FYDWL[Bip]E[NMeA][dL]NLVSCG-NH2; thioether N-14), with 0.06 µM.
In the case of `CC(C)C[C@@H]1NC(=O)[C@H](CCN)NC(=O)[C@@H](CC(C)C)NC(=O)[C@H](C)N(C)C(=O)[C@H](CCC(=O)O)NC(=O)[C@H](Cc2ccc(-c3ccccc3)cc2)NC(=O)[C@H](C(C)C)NC(=O)[C@H](Cc2c[nH]c3ccccc23)NC(=O)[C@H](CC(=O)O)NC(=O)[C@H](Cc2ccc(OCC(=O)O)cc2)NC(=O)[C@H](CC(N)=O)NC(=O)CSC[C@@H](C(=O)NCC(N)=O)NC(=O)[C@H](C(C)O)NC(=O)[C@H](C(C)C)NC1=O` (stereo partly drawn) [Compound 2086] ({CH2CO}-NY(Carboxymethyl)DWV[Bip]E[NMeA][dL][Dab]LV[Thr(3ξ)]CG-NH2; thioether N-14) it was 0.2 µM; in that of `CC(C)C[C@@H]1NC(=O)[C@H](Cc2c[nH]c3ccccc23)NC(=O)[C@H](CC(=O)O)NC(=O)[C@H](Cc2ccc(C#N)cc2)NC(=O)[C@H](CC(N)=O)NC(=O)CSC[C@@H](C(=O)NCC(N)=O)NC(=O)[C@H](CO)NC(=O)[C@H](C(C)C)NC(=O)[C@H](CC(C)C)NC(=O)[C@H](CC(N)=O)NC(=O)[C@@H](CC(C)C)NC(=O)[C@H](C)N(C)C(=O)[C@H](C(C)C)NC(=O)[C@H](Cc2ccc(-c3ccccc3)cc2)NC1=O` [Compound 1527] ({CH2CO}-N[Phe(4-CN)]DWL[Bip]V[NMeA][dL]NLVSCG-NH2; thioether N-14), 0.01 µM; in that of `Cc1cccc(C[C@@H]2NC(=O)[C@H](CC(=O)O)NC(=O)[C@H](Cc3ccc(OCC(=O)O)cc3)NC(=O)[C@H](C(C)O)NC(=O)CSC[C@@H](C(=O)N[C@@H](CCN)C(N)=O)NC(=O)[C@H](Cc3cnc[nH]3)NC(=O)[C@H](C(C)(C)O)NC(=O)[C@H](CC3CCCCC3)NC(=O)[C@H](CCN)NC(=O)[C@@H](CC(C)C)NC(=O)[C@H](C)N(C)C(=O)[C@H](Cc3ccc(C(N)=O)cc3)NC(=O)[C@H](Cc3ccc(-c4ccccc4)cc3)NC(=O)[C@H](Cc3ccc(OCC(=O)O)cc3)NC2=O)c1` (stereo partly drawn) [Compound 2158] ({CH2CO}-[Thr(3ξ)]Y(Carboxymethyl)D[Phe(3-Me)]Y(Carboxymethyl)[Bip][Phe(4-CONH2)][NMeA][dL][Dab][Cha][Val(3-OH)]HC[Dab]-NH2; thioether N-14), 0.02 µM.
For `CC(C)C[C@@H]1NC(=O)[C@H](CCN)NC(=O)[C@@H](CC(C)C)NC(=O)[C@H](C)N(C)C(=O)[C@H](C(C)C)NC(=O)[C@H](Cc2ccc(-c3ccccc3)cc2)NC(=O)[C@H](C(C)C)NC(=O)[C@H](Cc2c[nH]c3ccccc23)NC(=O)[C@H](CC(=O)O)NC(=O)[C@H](Cc2cccc(C#N)c2)NC(=O)[C@H](CN)NC(=O)CSC[C@@H](C(=O)N[C@@H](C)C(N)=O)NC(=O)[C@H]([C@@H](C)O)NC(=O)[C@H](C(C)C)NC1=O` [Compound 1436] ({CH2CO}-[Dap][Phe(3-CN)]DWV[Bip]V[NMeA][dL][Dab]LVTCA-NH2; thioether N-14), the concentration for half-maximal inhibition (IC50) came to 0.06 µM.
Turning to `Cc1cccc(C[C@@H]2NC(=O)[C@H](CC(=O)O)NC(=O)[C@H](Cc3ccc(OCC(=O)O)cc3)NC(=O)[C@H](CN)NC(=O)CSC[C@@H](C(=O)N[C@@H](CCN)C(N)=O)NC(=O)[C@H](CCCN)NC(=O)[C@H](C(C)C)NC(=O)[C@H](CC3CCCCC3)NC(=O)[C@H](CCN)NC(=O)[C@@H](C)NC(=O)[C@H](C)N(C)C(=O)[C@H](Cc3ccc(O)cc3)NC(=O)[C@H](Cc3ccc(-c4ccccc4)cc3)NC(=O)[C@H](Cc3ccc(O)cc3)NC2=O)c1` [Compound 1875] ({CH2CO}-[Dap]Y(Carboxymethyl)D[Phe(3-Me)]Y[Bip]Y[NMeA][dA][Dab][Cha]V[Orn]C[Dab]-NH2; thioether N-14), the IC50 worked out at 0.05 µM.
In the case of `CCC(C)[C@@H]1NC(=O)[C@H](Cc2ccc(-c3ccccc3)cc2)NC(=O)[C@H](C(C)C)NC(=O)[C@H](Cc2c[nH]c3ccccc23)NC(=O)[C@H](CC(=O)O)NC(=O)[C@H](Cc2ccc(O)cc2)NC(=O)[C@H](CC(N)=O)NC(=O)CSC[C@@H](C(=O)N[C@@H](CCCCN)C(N)=O)NC(=O)[C@H](C(C)O)NC(=O)[C@H](C(C)C)NC(=O)[C@H](CC2CCCCC2)NC(=O)[C@H](CCN)NC(=O)[C@@H](CC(C)C)NC(=O)[C@H](C)N(C)C1=O` (stereo partly drawn) [Compound 2079] ({CH2CO}-NYDWV[Bip][Ile(3ξ)][NMeA][dL][Dab][Cha]V[Thr(3ξ)]CK-NH2; thioether N-14), the IC50 is 0.02 µM.
Consider `Cc1cccc(C[C@@H]2NC(=O)[C@H](CC(=O)O)NC(=O)[C@H](Cc3ccc(OCC(=O)O)cc3)NC(=O)[C@H](CN)NC(=O)CSC[C@@H](C(N)=O)NC(=O)[C@H]([C@@H](C)O)NC(=O)[C@H](C(C)C)NC(=O)[C@H](CC3CCCCC3)NC(=O)[C@H](CCN)NC(=O)[C@@H](CC(C)C)NC(=O)[C@H](C)N(C)C(=O)[C@H](Cc3ccc(OCC(=O)O)cc3)NC(=O)[C@H](Cc3ccc(-c4ccccc4)cc3)NC(=O)[C@H](Cc3ccc(OCC(=O)O)cc3)NC2=O)c1` [Compound 1650] ({CH2CO}-[Dap]Y(Carboxymethyl)D[Phe(3-Me)]Y(Carboxymethyl)[Bip]Y(Carboxymethyl)[NMeA][dL][Dab][Cha]VTC-NH2; thioether N-14), for which the half-maximal inhibitory concentration (IC50) was 0.08 µM.
Then `CC(C)C[C@@H]1NC(=O)[C@H](CCCNC(=N)N)NC(=O)[C@@H](CC(C)C)NC(=O)[C@H](C)N(C)C(=O)[C@H](CCCNC(=N)N)NC(=O)[C@H](Cc2ccc(-c3ccccc3)cc2)NC(=O)[C@H](C(C)C)NC(=O)[C@H](Cc2c[nH]c3ccccc23)NC(=O)[C@H](CC(=O)O)NC(=O)[C@H](Cc2ccc(O)c([N+](=O)[O-])c2)NC(=O)[C@H](Cc2ccccc2)NC(=O)CSC[C@@H](C(=O)N[C@@H](C)C(N)=O)NC(=O)[C@H]([C@@H](C)O)NC(=O)[C@H](C(C)C)NC1=O` [Compound 1095] ({CH2CO}-F[Tyr(3-NO2)]DWV[Bip]R[NMeA][dL]RLVTCA-NH2; thioether N-14), with 0.15 µM; and `COc1cccc(-c2ccc(C[C@@H]3NC(=O)[C@H](CC(C)C)NC(=O)[C@H](Cc4c[nH]c5ccccc45)NC(=O)[C@H](CC(=O)O)NC(=O)[C@H](Cc4ccc(O)cc4)NC(=O)[C@H](Cc4ccccc4)NC(=O)CSC[C@@H](C(=O)N[C@@H](C)C(N)=O)NC(=O)[C@H](CO)NC(=O)[C@H](C(C)C)NC(=O)[C@H](CC(C)C)NC(=O)[C@H](CC(N)=O)NC(=O)[C@@H](C)NC(=O)[C@H](C)N(C)C(=O)[C@H](C(C)C)NC3=O)cc2)c1` [Compound 1798] ({CH2CO}-FYDWL[X39]V[NMeA][dA]NLVSCA-NH2; thioether N-14), with 0.17 µM.
`Cc1cccc(C[C@@H]2NC(=O)[C@H](CC(=O)O)NC(=O)[C@H](Cc3ccc(OCC(=O)O)cc3)NC(=O)[C@H](C(C)O)NC(=O)CSC[C@@H](C(=O)N[C@@H](CCNC(=O)C(C)(C)C)C(N)=O)NC(=O)[C@H](Cc3cnc[nH]3)NC(=O)[C@H](C(C)(C)O)NC(=O)[C@H](CC3CCCCC3)NC(=O)[C@H](CCN)NC(=O)[C@@H](CC(C)C)NC(=O)[C@H](C)N(C)C(=O)[C@H](Cc3ccc(OCC(=O)O)cc3)NC(=O)[C@H](Cc3ccc(-c4ccccc4)cc3)NC(=O)[C@H](Cc3ccc(C(=O)O)cc3)NC2=O)c1` (stereo partly drawn) [Compound 2164] ({CH2CO}-[Thr(3ξ)]Y(Carboxymethyl)D[Phe(3-Me)][Phe(4-COOH)][Bip]Y(Carboxymethyl)[NMeA][dL][Dab][Cha][Val(3-OH)]HC[Dab](Piv)-NH2; thioether N-14): the IC50 was 0.05 µM.
